Measurements: patent US20250360160A1, “NEW MEDICAL USE OF TAFOXIPARIN” (DILAFOR AB, priority 2022, published 2025)

Test system: term pregnant, nulliparous women with an unripe cervix
Assay: Clinical phase II trial PPL17 (Parts A and B), subcutaneous tafoxiparin vs placebo
Format: in vivo, human
Conditions: for proportion of women achieving spontaneous onset of labor: placebo 28.7%, FIG. 1; for Labor induced, number of subjects: onset of labor with intervention; for Labor induced with PGE-1, percent of subjects: placebo 10.2%; for Labor induced with amniotomy, percent of subjects: placebo 56.8%; for Labor induction with Balloon catheter, percent of subjects: placebo 58.0%; for Labor induced, percent of subjects: placebo 70.5%
Procedure: A clinical phase II trial is performed as a randomized, double-blind, placebo-controlled, parallel-group proof of concept study (Part A) with a conditional dose finding follow up study (Part B) to evaluate the efficacy, safety, tolerability and dose response of subcutaneously administered tafoxiparin as a supplement to induction therapy in term pregnant, nulliparous women with an unripe cervix. The study is performed in Sweden and Finland (PPL17), and an EMA (European Medicines Agency) description of the study can be found on the EU Clinical Trials Register web (www.clinicaltrialsregister.eu/ctr-search/search?query=PPL17).
A total of 170 term pregnant women are randomized to receive either 300 mg of tafoxiparin, or corresponding placebo (vehicle), administered subcutaneously every 24±3 hours and up to a total of 7 doses, or until partus (Part A).
In the dose finding follow up study (Part B), a total of 164 term pregnant women are randomized to receive either 75 or 150 mg of tafoxiparin administered subcutaneously every 24±3 hours […] and up to a total of 7 doses, or until partus.
To assess the efficacy of tafoxiparin on cervical ripening/cervical ripening rate, during and up to the first seven days of treatment, measured by Bishop score. All women must be examined to check the cervical state before enrollment.
Time from start of treatment to increase in Bishop score of ≥2 points or spontaneous onset of labor, whichever comes first. Time from start of treatment to increase in Bishop score of ≥3 points or spontaneous onset of labor, whichever comes first. Time from start of treatment to increase in Bishop score of ≥4 points or spontaneous onset of labor, whichever comes first.
Cervical ripening as measured by change from baseline to end of treatment in Bishop Score. Time from onset of labor to partus, where onset of labor is defined as last record of 4 cm cervical dilatation visualized in the partogram and progress of labor, or last record of 4 cm of cervical dilatation in combination with amniotomy and intravenous administration oxytocin.
Proportion of women with spontaneous onset of labor (Response group I).
Tafoxiparin/Placebo is supplied by Dilafor AB to the site as kits designed to constitute 300 mg of tafoxiparin or placebo for daily administration. Apart from the active substance, each ml of study drug will constitute 0.015 M phosphate buffer. The study medication kit for each patient will contain 8 doses consisting of 2 vials containing a minimum extractable volume of 1.6 ml of 150 mg/ml of tafoxiparin or placebo. One dose is a reserve dose in case a dose is rendered unusable. The investigational product should be administered subcutaneously every 24±3hours by the site staff for up to 7 doses, or until partus. At each dosing time 1.0 ml of the drug will be extracted from each of the 2 vials and injected as separate s.c. injections in the abdominal or hip region.
Tafoxiparin/Placebo is supplied by Dilafor AB to the site as kits designed to constitute 75 or 150 mg of tafoxiparin for daily administration. Apart from the active substance, each ml of study drug will constitute 0.015 M phosphate buffer. The study medication kit for each patient will contain 8 doses consisting of 2 vials for each injection occasion containing a minimum extractable volume of 1.6 ml of 150 mg/ml of tafoxiparin or placebo. For subjects receiving 75 mg of tafoxiparin, one vial will contain active substance and one containing placebo. For subjects receiving 150 mg of tafoxiparin, both vials will contain active substance. One dose is a reserve dose in case a dose is rendered unusable. The investigational product should be administered subcutaneously every 24±3 hours by the site staff for up to 7 doses, or until partus. At each dosing time, 0.5 ml of the drug will be extracted from each of the 2 vials and injected as separate s.c. injections in the abdominal or hip region. […]

[1] = 75 mg, n = 83, listed as tafoxiparin

Which “proportion of women achieving spontaneous onset of labor” value (75 mg daily s.c., of 82 women, p 0.102) does the source give for tafoxiparin here?
Its value is 40.2%.

What about the “number of subjects (women) that reach spontaneous onset of labor” value (“number of subjects … of labor” for short) (75 mg, Study day 1, n=33) of the same substance?
The value was 0.

What about the “percent of subjects (women) that reach spontaneous onset of labor” value (“percent of subjects … of labor” below) (75 mg, Study day 1, n=33) of the same substance?
The value was “(0%)”.

What about the “number of subjects … of labor” value (75 mg, Study day 2, n=33) of the same substance?
The value was 3.

What about the “percent of subjects … of labor” value (75 mg, Study day 2, n=33) of the same substance?
The value was “(9%)”.

What about the “number of subjects … of labor” value (75 mg, Study day 3, n=33) of the same substance?
Its value is 6.

What about the “percent of subjects … of labor” value (75 mg, Study day 3, n=33) of the same substance?
Its value is “(18%)”.

What about the “number of subjects … of labor” value (75 mg, Study day 4, n=33) of the same substance?
The value was 11.

What about the “percent of subjects … of labor” value (75 mg, Study day 4, n=33) of the same substance?
The value was “(33%)”.

What about the “number of subjects … of labor” value (75 mg, Study day 5, n=33) of the same substance?
Its value is 22.

And the “percent of subjects … of labor” value (75 mg, Study day 5, n=33)?
The value was “(67%)”.

And the “number of subjects … of labor” value (75 mg, Study day 6, n=33)?
Its value is 25.

What about the “percent of subjects … of labor” value (75 mg, Study day 6, n=33) of the same substance?
Its value is “(76%)”.

And the “number of subjects … of labor” value (75 mg, Study day 7, n=33)?
The value was 32.

And the “percent of subjects … of labor” value (75 mg, Study day 7, n=33)?
The value was “(97%)”.

What about the “number of subjects … of labor” value (75 mg, Study day 8, n=33) of the same substance?
Its value is 33.

And the “percent of subjects … of labor” value (75 mg, Study day 8, n=33)?
The value was “(100%)”.

And the “Fetal distress as indication for operative delivery (ODFD), number of patients” value (75 mg, n = 83)?
The value was 16.

And the “Labor induced with PGE-1, number of subjects” value (75 mg, n = 83)?
Its value is 7.

And the “Labor induced with amniotomy, number of subjects” value (75 mg, n = 83)?
Its value is 46.

And the “Labor induced with oxytocin, number of subjects” value (75 mg, n = 83)?
Its value is 34.

And the “Labor induction with Balloon catheter, number of subjects” value (75 mg, n = 83)?
Its value is 35.

What about the “Labor induced, number of subjects” value (75 mg, n = 83) of the same substance?
The value was 48.

And the “Labor induced with PGE-1, percent of subjects” value (75 mg, n = 83)?
Its value is “(8.4%)”.

And the “Labor induced with PGE-1, percent of subjects” value [1]?
Its value is 8.4%.

And the “Fetal distress as indication for operative delivery (ODFD), percent of patients” value (75 mg, n = 83, placebo 22.7%)?
Its value is 19.3%.

What about the “Percent of patients with operative delivery” value (75 mg, n = 83, placebo 45.5%) of the same substance?
The value was 38.6%.

And the “Labor induced with oxytocin, percent of subjects” value (75 mg, n = 83, placebo 54.5%)?
The value was “(41.0%)”.

And the “Labor induced with oxytocin, percent of subjects” value (75 mg, n = 83, placebo 54.5%, listed as tafoxiparin)?
The value was 41.0%.

What about the “Labor induced with amniotomy, percent of subjects” value (75 mg, n = 83) of the same substance?
Its value is “(55.4%)”.

And the “Labor induced with amniotomy, percent of subjects” value [1]?
The value was 55.4%.

And the “Labor induction with Balloon catheter, percent of subjects” value (75 mg, n = 83)?
The value was “(42.2%)”.

And the “Labor induction with Balloon catheter, percent of subjects” value [1]?
Its value is 42.2%.

And the “Labor induced, percent of subjects” value (75 mg, n = 83)?
Its value is “(57.8%)”.

What about the “Labor induced, percent of subjects” value [1] of the same substance?
Its value is 57.8%.

And the “number of women reaching spontaneous onset of labor with uncomplicated delivery” value (75 mg, of 29 women)?
The value was 22 women.

And the “proportion of women reaching spontaneous onset of labor with uncomplicated delivery” value (75 mg, of 29 women, placebo 54.5%)?
The value was 75.9%.

What about the “number of women needing instrumental delivery or caesarian section to reach partus” value (75 mg, of 33 women) of the same substance?
The value was 11 women.

And the “number reaching partus by vaginal delivery with no need for instrumental delivery nor caesarian section” value (75 mg, of 33 women)?
Its value is 22 women.

What about the “number of women achieving spontaneous onset of labor” value (75 mg, of 82 women) of the same substance?
The value was 33 women.

What about the “number of women needing instrumental delivery” value (75 mg, spontaneous onset of labor, of 29 women) of the same substance?
Its value is 7 women.

What about the “proportion reaching partus by vaginal delivery with no need for instrumental delivery nor caesarian section” value (75 mg, women with spontaneous onset of labor, of 33, placebo 48%, FIG. 5) of the same substance?
Its value is 66.7%.

What about the “proportion of women needing instrumental delivery or caesarian section to reach partus” value (75 mg, women with spontaneous onset of labor, of 33, placebo 52%, FIG. 5) of the same substance?
The value was 33.3%.

And the “proportion of women needing instrumental delivery” value (75 mg, women with spontaneous onset of labor, vaginal mode of partus, of 29, p=0.181, placebo 45.5%, FIG. 4)?
The value was 24.1%.

And the “proportion of women achieving spontaneous onset of labor” value (150 mg daily s.c., of 85 women, p 0.039)?
Its value is 42.4%.

What about the “number of subjects … of labor” value (150 mg, Study day 1, n=36) of the same substance?
Its value is 0.

What about the “percent of subjects … of labor” value (150 mg, Study day 1, n=36) of the same substance?
Its value is “(0%)”.

What about the “number of subjects … of labor” value (150 mg, Study day 2, n=36) of the same substance?
Its value is 4.

And the “percent of subjects … of labor” value (150 mg, Study day 2, n=36)?
The value was “(11%)”.

And the “number of subjects … of labor” value (150 mg, Study day 3, n=36)?
The value was 15.

What about the “percent of subjects … of labor” value (150 mg, Study day 3, n=36) of the same substance?
Its value is “(42%)”.

What about the “number of subjects … of labor” value (150 mg, Study day 4, n=36) of the same substance?
The value was 19.

What about the “percent of subjects … of labor” value (150 mg, Study day 4, n=36) of the same substance?
The value was “(53%)”.

And the “number of subjects … of labor” value (150 mg, Study day 5, n=36)?
Its value is 26.

And the “percent of subjects … of labor” value (150 mg, Study day 5, n=36)?
The value was “(72%)”.

And the “number of subjects … of labor” value (150 mg, Study day 6, n=36)?
Its value is 30.

And the “percent of subjects … of labor” value (150 mg, Study day 6, n=36)?
Its value is “(83%)”.

What about the “number of subjects … of labor” value (150 mg, Study day 7, n=36) of the same substance?
Its value is 34.

What about the “percent of subjects … of labor” value (150 mg, Study day 7, n=36) of the same substance?
Its value is “(94%)”.

What about the “number of subjects … of labor” value (150 mg, Study day 8, n=36) of the same substance?
The value was 35.

And the “percent of subjects … of labor” value (150 mg, Study day 8, n=36)?
The value was “(97%)”.

And the “number of subjects … of labor” value (150 mg, Study day 9, n=36)?
Its value is 36.

What about the “percent of subjects … of labor” value (150 mg, Study day 9, n=36) of the same substance?
The value was “(100%)”.

What about the “Fetal distress as indication for operative delivery (ODFD), number of patients” value (150 mg, n = 85) of the same substance?
The value was 20.

What about the “Labor induced with PGE-1, number of subjects” value (150 mg, n = 85) of the same substance?
Its value is 7.

And the “Labor induced with amniotomy, number of subjects” value (150 mg, n = 85)?
Its value is 39.

What about the “Labor induced with oxytocin, number of subjects” value (150 mg, n = 85) of the same substance?
The value was 38.

And the “Labor induction with Balloon catheter, number of subjects” value (150 mg, n = 85)?
The value was 37.

And the “Labor induced, number of subjects” value (150 mg, n = 85)?
The value was 48.

What about the “Labor induced with PGE-1, percent of subjects” value (150 mg, n = 85) of the same substance?
The value was “(8.2%)”.
